Key:
C. albicans ATCC 24433 = test: Checkerboard MIC assay, FICI; assay type: cell-based, Candida albicans
From the text: (§1) The following assay was used to determine the minimum inhibitory concentration (MIC) and fractional inhibitory concentration index (FICI) for combinations of an antifungal agent and a glycopeptide antibacterial agent. This assay and methods for calculating FICI are well known in the art. See, for example, Eliopoulos, E. G. and R. Moellering, Jr. “Antimicrobial Combinations” in Antibiotics in Laboratory Medicine, edited by V. Lorian, 4th Ed., Williams & Wilkins, Baltimore, MD, pp. 330-396 (1996); […] et al., Antimicrobial Agents and Chemotherapy 47(4):1416-1418 (2003); or […] et al., Antimicrobial Agents and Chemotherapy 46(10):3323-3326 (2002). Procedures, protocols, supplies and equipment used in this assay follow the recommendations approved and published by the National Committee for Clinical Laboratory Standards (NCCLS), Wayne, Pa. as described in NCCLS 2003, “Reference Method for Broth Dilution Antimicrobial Susceptibility Tests for Bacteria that Grow Aerobically; Approved Standard” (NCCLS document M7-A6); NCCLS 2002, “Reference Method for Broth Dilution Antifungal Susceptibility Tests of Filamentous Fungi that Grow Aerobically; Approved Standard” (NCCLS document M38-A); and NCCLS 2002 “Reference Method for Broth Dilution Antifungal Susceptibility Tests of Yeast; Approved Standards-2nd Edition” (NCCLS document M27-A2). Using a checkerboard method, a 2-fold dilution 100× final concentration master plate was prepared using a 96-well U-shape microtiter plate and an appropriate solvent. In the “checkerboard” method, a microtiter plate is divided into “columns” in which each well in the column contains the same amount of an antifungal agent (Compound A) being diluted along the x-axis, and “rows” in which each well in the row contains the same amount of a glycopeptide antibacterial agent (Compound B) being diluted on the y-axis. Also included is a row (or column) for Compound A or B alone. The dilutions used in the checkerboard are exponential (by powers of two). The result is that each well in the microtiter plate contains a unique concentration of the two compounds being tested. […] After mixing, 100 μL of 2× drug combinations were distributed into 96-well microtiter plates. […] Compound A was not added to Column 12, so Column 12 contained only Compound B. Compound B was diluted from row A starting at 6,400 μg/mL down to row G (100 μg/mL). Wells in Row A contained a final concentration of 64 μg/mL of Compound B; Row B contained a final concentration of 32 μg/mL of Compound B; Row C contained a final concentration of 16 μg/mL of Compound B; etc. Compound B was not added to Row H, so Row H only contained Compound A. […] The MIC of the glycopeptide antibacterial agent determined from this experiment was used in FIC calculations. […] RPMI-1640 without sodium bicarbonate media (GIBCO-BRL, Carlsbad, Calif.), an enriched media formulated for mammalian cells, was used according to the NCCLS guidelines for yeast and filamentous fungi susceptibility testing. The medium was buffered with 0.165 M 3-[N-Morpholino]propanesulfonic acid (MOPS) supplemented with 20 g/L glucose and pH adjusted to 7.0 with hydrogen chloride. Sabouraud Dextrose Agar ([…] plates, and Potato Dextrose Agar (PDA) plates were purchased from Hardy Diagnostic (Santa Maria, Calif.). Yeast cultures were started from -80° C. frozen stock streaked on […] incubated at 35° C. under aerobic conditions for 24 h. The […] in the refrigerator for up to 2 weeks and used regularly as a starting culture. About 24 to 48 h before each assay was run, yeasts were streaked on SDA plates for isolated colonies. To prepare the inoculum, from one to four colonies were resuspended in 5 mL of saline, and vortexed for 15 sec. […] For most yeast and mold cultures, the optical density (OD) of the suspension was adjusted to 0.11 in saline to provide 0.4×10^6 CFU/mL. However, for Fusarium moniliforme and Pseudallescheria boydii the OD of the suspension was adjusted to OD=0.17 to provide 0.4×10^6 CFU/mL. […]

various strains of fungi = test: Assay for determining MIC and FICI, summary over strains; assay type: cell-based; conditions: combination with amphotericin B
From the text: The following assay was used to determine the minimum inhibitory concentration (MIC) and fractional inhibitory concentration index (FICI) for combinations of an antifungal agent and a glycopeptide antibacterial agent. This assay and methods for calculating FICI are well known in the art. See, for example, Eliopoulos, E. G. and R. Moellering, Jr. “Antimicrobial Combinations” in Antibiotics in Laboratory Medicine, edited by V. Lorian, 4th Ed., Williams & Wilkins, Baltimore, MD, pp. 330-396 (1996); Shalit et al., Antimicrobial Agents and Chemotherapy 47(4):1416-1418 (2003); or Afeltra et al., Antimicrobial Agents and Chemotherapy 46(10):3323-3326 (2002).
Procedures, protocols, supplies and equipment used in this assay follow the recommendations approved and published by the National Committee for Clinical Laboratory Standards (NCCLS), Wayne, Pa. as described in NCCLS 2003, “Reference Method for Broth Dilution Antimicrobial Susceptibility Tests for Bacteria that Grow Aerobically; Approved Standard” (NCCLS document M7-A6); NCCLS 2002, “Reference Method for Broth Dilution Antifungal Susceptibility Tests of Filamentous Fungi that Grow Aerobically; Approved Standard” (NCCLS document M38-A); and NCCLS 2002 “Reference Method for Broth Dilution Antifungal Susceptibility Tests of Yeast; Approved Standards-2nd Edition” (NCCLS document M27-A2). […]

C. krusei ATCC 32672 = test: Checkerboard MIC assay, FICI; assay type: cell-based, Candida krusei
From the text: as §1

[1] = tested on: C. parapsilosis ATCC 22019; test: Checkerboard MIC assay, FICI; assay type: cell-based, Candida parapsilosis
From the text: as §1

C. tropicalis ATCC 750 = test: Checkerboard MIC assay, FICI; assay type: cell-based, Candida tropicalis
From the text: as §1

C. glabrata ATCC 200918 = test: Checkerboard MIC assay, FICI; assay type: cell-based, Candida glabrata; conditions: combination with Compound 1
From the text: The following assay was used to determine the minimum inhibitory concentration (MIC) and fractional inhibitory concentration index (FICI) for combinations of an antifungal agent and a glycopeptide antibacterial agent. This assay and methods for calculating FICI are well known in the art. See, for example, Eliopoulos, E. G. and R. Moellering, Jr. “Antimicrobial Combinations” in Antibiotics in Laboratory Medicine, edited by V. Lorian, 4th Ed., Williams & Wilkins, Baltimore, MD, pp. 330-396 (1996); […] et al., Antimicrobial Agents and Chemotherapy 47(4):1416-1418 (2003); or […] et al., Antimicrobial Agents and Chemotherapy 46(10):3323-3326 (2002). Procedures, protocols, supplies and equipment used in this assay follow the recommendations approved and published by the National Committee for Clinical Laboratory Standards (NCCLS), Wayne, Pa. as described in NCCLS 2003, “Reference Method for Broth Dilution Antimicrobial Susceptibility Tests for Bacteria that Grow Aerobically; Approved Standard” (NCCLS document M7-A6); NCCLS 2002, “Reference Method for Broth Dilution Antifungal Susceptibility Tests of Filamentous Fungi that Grow Aerobically; Approved Standard” (NCCLS document M38-A); and NCCLS 2002 “Reference Method for Broth Dilution Antifungal Susceptibility Tests of Yeast; Approved Standards-2nd Edition” (NCCLS document M27-A2). Using a checkerboard method, a 2-fold dilution 100× final concentration master plate was prepared using a 96-well U-shape microtiter plate and an appropriate solvent. In the “checkerboard” method, a microtiter plate is divided into “columns” in which each well in the column contains the same amount of an antifungal agent (Compound A) being diluted along the x-axis, and “rows” in which each well in the row contains the same amount of a glycopeptide antibacterial agent (Compound B) being diluted on the y-axis. Also included is a row (or column) for Compound A or B alone. The dilutions used in the checkerboard are exponential (by powers of two). The result is that each well in the microtiter plate contains a unique concentration of the two compounds being tested. […] After mixing, 100 μL of 2× drug combinations were distributed into 96-well microtiter plates. […] Compound A was not added to Column 12, so Column 12 contained only Compound B. Compound B was diluted from row A starting at 6,400 μg/mL down to row G (100 μg/mL). Wells in Row A contained a final concentration of 64 μg/mL of Compound B; Row B contained a final concentration of 32 μg/mL of Compound B; Row C contained a final concentration of 16 μg/mL of Compound B; etc. Compound B was not added to Row H, so Row H only contained Compound A. […] The MIC of the glycopeptide antibacterial agent determined from this experiment was used in FIC calculations. […]

[2] = combination with Amphotericin B, C. albicans 24433
[3] = combination with Amphotericin B, C. krusei 32672
[4] = combination with Amphotericin B, C. parapsilosis 22019
[5] = combination with Amphotericin B, C. tropicalis 750
[6] = combination with Compound 1, C. albicans ATCC 24433
[7] = combination with Compound 1, C. parapsilosis ATCC 22019
[8] = combination with Compound 1, C. tropicalis ATCC 750
[9] = combination with Compound 1, C. krusei ATCC 32672

CN[C@H](CC(C)C)C(=O)N[C@H]1C(=O)N[C@@H](CC(N)=O)C(=O)N[C@H]2C(=O)N[C@H]3C(=O)N[C@H](C(=O)N[C@H](C(=O)O)c4cc(O)cc(O)c4-c4cc3ccc4O)[C@H](O)c3ccc(c(Cl)c3)Oc3cc2cc(c3O[C@@H]2O[C@H](CO)[C@@H](O)[C@H](O)[C@H]2O[C@H]2C[C@](C)(N)[C@H](O)[C@H](C)O2)Oc2ccc(cc2Cl)[C@H]1O [Vancomycin]
FICI (C. albicans ATCC 24433; [2]): 2.00
effect of the combination (various strains of fungi): not synergistic or additive
FICI (C. krusei ATCC 32672; [3]): 2.00
FICI [1, 4]: 2.00
FICI (C. tropicalis ATCC 750; [5]): 2.00

Teicoplanin
FICI (C. albicans ATCC 24433; [2]): 0.53
FICI (C. krusei ATCC 32672; [3]): 0.38
FICI [1, 4]: 0.38
FICI (C. tropicalis ATCC 750; [5]): 0.38

Clc1ccc(COC(Cn2ccnc2)c2ccc(Cl)cc2Cl)c(Cl)c1 (centres unmarked) [Miconazole, miconazole]
FICI (C. albicans ATCC 24433; [6]): 2.00
FICI [1, 7]: 2.00
FICI (C. tropicalis ATCC 750; [8]): 2.00

C[C@@H](c1ncncc1F)[C@](O)(Cn1cncn1)c1ccc(F)cc1F [Voriconazole, voriconazole]
FICI (C. krusei ATCC 32672; [9]): 1.13
FICI (C. glabrata ATCC 200918): 1.13

CCCCCCCCCCNCCN[C@@]1(C)C[C@H](O[C@H]2[C@H](Oc3c4cc5cc3Oc3ccc(cc3Cl)[C@@H](O)[C@@H](NC(=O)[C@@H](CC(C)C)NC)C(=O)N[C@@H](CC(N)=O)C(=O)N[C@H]5C(=O)N[C@H]3C(=O)N[C@H](C(=O)N[C@H](C(=O)O)c5cc(O)c(CNCP(=O)(O)O)c(O)c5-c5cc3ccc5O)[C@H](O)c3ccc(c(Cl)c3)O4)O[C@H](CO)[C@@H](O)[C@@H]2O)O[C@@H](C)[C@H]1O [Compound 1, telavancin]
FICI (C. albicans ATCC 24433; [2]): 0.31
FICI (C. krusei ATCC 32672; [3]): 0.31
FICI [1, 4]: 0.31
FICI (C. tropicalis ATCC 750; [5]): 0.31

OC(Cn1cncn1)(Cn1cncn1)c1ccc(F)cc1F [Fluconazole]
FICI (C. albicans ATCC 24433; [6]): 2.00
FICI (C. krusei ATCC 32672; [9]): 2.00
FICI (C. glabrata ATCC 200918): 2.00
FICI [1, 7]: 2.00
FICI (C. tropicalis ATCC 750; [8]): 2.00

Source: US7521418B2, “Use of a polyene macrolide antifungal agent in combination with a glycopeptide antibacterial agent” (Theravance, Inc., priority 2003, dated 2009)
